The text below walks through data of US6613920B1, “Vitamin D derivatives with carbo- or heterocyclic substituents at C-25, process for their production, intermediate products and use for the production of pharmaceutical agents” (Schering Aktiengesellschaft, priority 1996, dated 2003).

In data set [1] the target is T1, calcitriol receptor (specific receptor protein from the intestines of juvenile pigs) (Sus scrofa, UniProt A3RGC1).
T1 construct: a specific receptor protein from the intestines of juvenile pigs; from tissue; host or cells: intestines of juvenile pigs
T1 sequence (A3RGC1 1-427): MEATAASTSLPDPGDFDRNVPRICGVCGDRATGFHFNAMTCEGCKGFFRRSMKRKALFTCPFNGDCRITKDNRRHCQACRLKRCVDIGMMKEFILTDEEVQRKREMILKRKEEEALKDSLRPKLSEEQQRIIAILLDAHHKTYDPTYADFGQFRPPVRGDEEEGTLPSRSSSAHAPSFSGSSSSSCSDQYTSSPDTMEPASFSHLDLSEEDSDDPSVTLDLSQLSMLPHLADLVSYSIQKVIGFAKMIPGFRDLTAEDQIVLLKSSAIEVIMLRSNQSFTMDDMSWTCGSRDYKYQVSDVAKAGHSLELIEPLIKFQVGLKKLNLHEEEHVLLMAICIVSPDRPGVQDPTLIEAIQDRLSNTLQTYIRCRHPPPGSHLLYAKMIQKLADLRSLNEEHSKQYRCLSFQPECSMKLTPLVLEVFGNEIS
The experiment in a line: calcitriol-receptor test (competition with 3H-calcitriol). It counts as binding, pig. The following applies: KF = concentration of test substance / concentration of calcitriol at 50% competition.
Protocol: It is carried out using a specific receptor protein from the intestines of juvenile pigs.
250 μl of a charcoal-dextran suspension is fed to each test tube and incubated at 4° C. for 20 minutes. Then, the samples are centrifuged at 10,000×g for 5 minutes at 4° C. The supernatant is decanted and measured in a β-counter after 1 hour of equilibration in Picofluor 15™.
It is defined as a quotient of the concentrations of the respective test substance and the reference substance, which are necessary for 50% competition:
KF=Concentration of test substance at 50% competition/Concentration of reference substance at 50% competition

Data set [2] can be described thus: acute hypercalcemic action in rats (serum calcium). Format: in vivo. The following applies: one-time subcutaneous administration, DR = test substance dose / calcitriol dose for comparable actions. On the procedure: To determine the acute hypercalcemic action of various calcitriol derivatives, the test that is described below is carried out:
During the testing time, the rats are kept in special cages to determine the excretion of water and mineral substances. Urine is collected in 2 fractions (0-16 hours and 16-22 hours). An oral dose of calcium (0.1 mmol of calcium in 6.5% alpha-hydroxypropylcellulose, 5 ml/animal) replaces at 1600 hours the calcium intake that is lacking by food deprivation. At the end of the test, the animals are killed by decapitation and exsanguinated to determine the serum-calcium values. For the primary screen test in vivo, an individual standard dose (200 μg/kg) is tested. For selected substances, the result is supported by establishing a dose-effect relation.
A hypercalcemic action is shown in serum-calcium level values that are higher than in the control.
The significance of differences between substance groups and controls and between test substance and reference substance are supported with suitable statistical processes.

Data set [3] has as its system HL 60 cells. In words: differentiation induction of HL 60 cells to macrophages (NBT reduction). Format: cell-based, human. The following applies: DR = test substance dose / calcitriol dose for comparable semi-maximum actions; 96 hours incubation. On the procedure: The differentiation-stimulating action of calcitriol analogues is also detected quantitatively.
It is known in the literature [Mangelsdorf, D. J. et al., J. Cell.
HL 60 cells are cultivated in tissue culture medium (RPMI 10% fetal calf serum) at 37° C. in an atmosphere of 5% CO2 in air.
For substance testing, the cells are centrifuged off, and 2.0×10^5 cells/ml in phenol red-free tissue culture medium is taken up. The test substances are dissolved in ethanol and diluted with tissue culture medium without phenol red to the desired concentration. The dilution stages are mixed with the cell suspension at a ratio of 1:10, and 100 μl each of this cell suspension that is mixed with substance is pipetted into an indentation of a 96-hole plate. For control, a cell suspension is mixed analogously with the solvent.
After incubation for 96 hours at 37° C. in 5% CO2 in air, 100 μl of an NBT-TPA solution (nitro blue tetrazolium (NBT), final concentration in the batch of 1 mg/ml, tetradecanoyl phorbolmyristate-13-acetate (TPA), final concentration in the batch of 2×10^−7 mol/l) is pipetted into each indentation of the 96-hole plate in the cell suspension.
By incubation for 2 hours at 37° C. and 5% CO2 in air, NBT is reduced to insoluble formazan because of the intracellular oxygen radical release, stimulated by TPA, in the cells that are differentiated to macrophages.
To complete the reaction, the indentations of the 96-hole plate are suctioned off, and the cells are affixed to the bottom of the plate by adding methanol and dried after affixing. To dissolve the intracellular formazan crystals that are formed, 100 μl of potassium hydroxide (2 mol/l) and 100 μl of dimethyl sulfoxide are pipetted into each indentation and ultrasonically treated for 1 minute. The concentration of formazan is measured by spectrophotometry at 650 nm.
As a yardstick for the differentiation induction of HL 60 cells to macrophages, the concentration of formed formazan applies.

Data set [4] deals with HL 60 cells. In words: antagonism of the action of calcitriol in HL 60 cells. It counts as cell-based, human. An excerpt: In the series of 25-oxazole derivatives, the compounds with increasing chain length on the heterocycle in the case of constantly good receptor affinity show considerably weaker differentiation-stimulating agonistic activity in HL 60 cells (Tab. 1). […] This property is continued with increasing chain length in radical Z of general formula I.

The structures appear in SMILES notation.

In the case of `C=C1/C(=C\C=C2/CCC[C@]3(C)[C@@H]([C@H](C)/C=C/[C@@H](O)C4(c5ncc(CCC)o5)CC4)CC[C@@H]23)C[C@@H](O)C[C@@H]1O` [Compound 14, (5Z,7E,22E)-(1S,3R,24R)-25-(5-Propyloxazol-2-yl)-26,27-cyclo-9,10-secocholesta-5,7,10(19),22-tetraene-1,3,24-triol], in data set [1], the “Competition Factor KF for Receptor Bonding” value (“Competition Factor KF” for short) was 2. In addition, in data set [2], the “dose ratio DR for hypercalcemia” value is 300. Also, the “Dose Ratio for Differentiation Induction in HL 60 Cells” value in the data set with HL 60 cells [3] amounted to 1.9.

Consider `C=C1C(=CC=C2CCCC3(C)C2CCC3C(C)C=CC(O)C2(c3ncc(CCCCC)o3)CC2)CC(O)CC1O` [Compound 17, (5Z,7E,22E)-(1S,3R,24R)-25-(5-pentyloxazol-2-yl)-26,27-cyclo-9,10-secocholesta-5,7,10(19),22-tetraene-1,3,24-triol], for which the “Competition Factor KF” value in data set [1] came to 4. For the same molecule, in the data set with HL 60 cells [4], the “antagonism of the action of calcitriol in HL 60 cells” value is reported as “antagonize the action of calcitriol”. Besides, the “Dose Ratio for Differentiation Induction in HL 60 Cells” value in the data set with HL 60 cells [3] is given as >100.

On to `C=C1/C(=C\C=C2/CCC[C@]3(C)[C@@H]([C@H](C)/C=C/[C@@H](O)C4(c5ncc(CC)o5)CC4)CC[C@@H]23)C[C@@H](O)C[C@@H]1O` [Compound 16, (5Z,7E,22E)-(1S,3R,24R)-25-(5-ethyloxazol-2-yl)-26,27-cyclo-9,10-secocholesta-5,7,10(19),22-tetraene-1,3,24-triol], for which the “Competition Factor KF” value in data set [1] is listed as 3. Also, the “antagonism of the action of calcitriol in HL 60 cells” value in the data set on HL 60 cells [4] is “antagonize the action of calcitriol”. Also, the “Dose Ratio for Differentiation Induction in HL 60 Cells” value in the data set on HL 60 cells [3] is reported as 1.3.

`C=C1C(=CC=C2CCCC3(C)C2CCC3C(C)C=CC(O)C2(c3ncc(C)o3)CC2)CC(O)CC1O` [Compound 15, (5Z,7E,22E)-(1S,3R,24R)-25-(5-methyloxazol-2-yl)-26,27-cyclo-9,10-secocholesta-5,7,10(19),22-tetraene-1,3,24-triol]: the “Competition Factor KF” value in data set [1] was found to be 2. The “Dose Ratio for Differentiation Induction in HL 60 Cells” value in the data set on HL 60 cells [3] was determined as 3.4.
